Source: patent publication US8298513B2, “Hexatriene-β-carbonyl compound” (Osaka University, priority 2007, dated 2012)
Values belong to the compound of their own block, whether it stands above or below them.

Key:
[1] = molecular target: T1, human serum albumin (HSA) (Homo sapiens, UniProt P02768); assay: Labeling of human serum albumin (HSA) with Compound 8, 57Co incorporation, gamma ray counting; conditions: room temperature 30 minutes, PBS, gamma ray count
Protocol: HSA (0.5 mg, 7.5 nmol was dissolved in a PBS buffer solution (1.5 ml) to prepare a 5 μM HSA solution. 320 μl (1.6 nmol) of the HSA solution was introduced into each of 3 Eppendorf tubes. 1.2 μl (40 nmol), 2.3 μl (80 nmol) and 11.8 μl (0.4 μmol) of a DMF solution (3.38×10^−2M) of Compound 8 described above were added to the respective Eppendorf tubes. 160 μl (0.8 nmol) of the 5 μM HSA solution was added to each of the Eppendorf tubes, and 11.8 μl (0.4 μmol) of a DMF solution (3.38×10^−2M) of Compound 8 described above was added to each tube. The reaction mixtures all were left to stand at room temperature for 30 minutes. Purification was performed using a filter with a 30000 molecular weight cut off manufactured by Millipore, followed by concentration. The protein concentration in the contents of each Eppendorf tube was measured, 5 μl of the contents of each Eppendorf tube were added to other Eppendorf tubes, and a 0.25 M ammonium acetate buffer solution (15 μl) and a 400 μM ^57Co solution (10 μl) were added thereto. The reaction mixtures were incubated at 41° C. for 3 hours. 10 μl of a 0.01 M 1,4,7,10-tetraazacyclododecane-1,4,7,10-tetraacetic acid (DOTA) solution was added to each reaction mixture, and incubation was performed at 41° C. for 10 minutes. […] The silica gel plates were cut in half lengthwise, and gamma rays were counted with a gamma ray counter using the plates.

anti-GFP antibody = assay: Labeling of anti-GFP antibody with Compound 8, GFP fluorescence measurement after immune precipitation; conditions: 10 to 1250 equivalents, room temperature 10 minutes; GFP fluorescence excitation 395 nm, emission 509 nm
Protocol: To a PBS buffer solution (81 μl) was added 27 μl of an anti-GFP antibody (20 μg/μl, PBS buffer solution, manufactured by Nacalai Tesque, Inc.) for dilution. The diluted anti-GFP solution was added to 4 Eppendorf tubes each in an amount of 3.3 μM, 8 μl, 2.6×10^−11 mol, and Compound 8 was added in a proportion of 10 equivalents (24 μM, 5 μl, 2.6×10^−10 mol), 50 equivalents (0.12 mM, 5 μl, 1.3×10^−9 mol), 250 equivalents (0.61 mM, 5 μl, 6.6×10^−9 mol) and 1250 equivalents (12 mM, 2.7 μl, 3.3×10^−8 mol) relative to the anti-GFP antibody. The mires were left to stand for 10 minutes at room temperature, and then a GFP antigen (cultured from Escherichia coli, PBS buffer solution, 1000 μl) was added and reacted at 4° C. for 1 hour. Thereafter, Protein G (500 μg, manufactured by GE Healthcare Ltd.) was added to the mixtures and left to stand at the same temperature for 30 minutes. Then, labeled anti-GFP (Compound 24) was purified by subjecting the mixtures to immune precipitation. GFP fluorescence measurement (excitation: 395 nm, emission: 509 nm) was performed on each anti-GFP.

[2] = molecular target: T1, human serum albumin (HSA); assay: Labeling of human serum albumin (HSA), fluorescence spectrum of the reaction product; conditions: phosphate buffer pH 7.4, 40° C. for 1 hour; 420 nm excitation light
Protocol: (§1) HSA was dissolved in a phosphate buffer (0.1 M, pH 7.4) to adjust the concentration to 5.0×10^−5 M. 20 μl of a phosphate buffer (0.1 M, pH 7.4) was added to 200 μl of the solution for dilution, and the mixture was pre-incubated at 40° C. for 5 minutes. A 1,4-dioxane (20 μl) solution of Compound 50 (50 μg, 0.1 μmol) was added to the mixture, and the mixture was incubated at 40° C. for 1 hour. 300 μl of 1% acetic acid was added to the reaction solution to quench the reaction, and the reaction solution was purified by gel filtration and lyophilized.
as §1, with “buffer solution” for “buffer”, “Compound 56” for “Compound 50”

[3] = PET imaging of the biodistribution of 68Ga-DOTA-labeled somatostatin in a rat; type: in vivo, rat (Wistar rat); conditions: tail vein, given as 68Ga-DOTA-labeled somatostatin (Compound 41), accumulated 3 to 7 minutes after administration
Protocol: A DMF solution (40 μl) of Compound 8 produced in Example 3 described above was added to a solution of somatostatin (0.17 mg, 0.10 μmol) in Otsuka distilled water (154 μl) and put into a vortex generator. The reaction mixture was left to stand at room temperature for 30 minutes and then lyophilized, thereby giving the titled Compound 9.
A 1 N hydrochloric acid solution (400 μl) of ^68GaCl3 eluted from a ^68Ga/^68Ge generator was purified, neutralized with aqueous 4 N NaOH and then added to Compound 9 described above. After incubation at 40° C. for 10 minutes, it was injected into a rat (Wistar rat 8W, male, 235 g) (1.68 mCi). Propofol was administered continuously at a rate of […] into the tail vein of the rat for tranquilization, and a PET tracer was administered into the tail vein of the rat.

T1 sequence (P02768 25-609): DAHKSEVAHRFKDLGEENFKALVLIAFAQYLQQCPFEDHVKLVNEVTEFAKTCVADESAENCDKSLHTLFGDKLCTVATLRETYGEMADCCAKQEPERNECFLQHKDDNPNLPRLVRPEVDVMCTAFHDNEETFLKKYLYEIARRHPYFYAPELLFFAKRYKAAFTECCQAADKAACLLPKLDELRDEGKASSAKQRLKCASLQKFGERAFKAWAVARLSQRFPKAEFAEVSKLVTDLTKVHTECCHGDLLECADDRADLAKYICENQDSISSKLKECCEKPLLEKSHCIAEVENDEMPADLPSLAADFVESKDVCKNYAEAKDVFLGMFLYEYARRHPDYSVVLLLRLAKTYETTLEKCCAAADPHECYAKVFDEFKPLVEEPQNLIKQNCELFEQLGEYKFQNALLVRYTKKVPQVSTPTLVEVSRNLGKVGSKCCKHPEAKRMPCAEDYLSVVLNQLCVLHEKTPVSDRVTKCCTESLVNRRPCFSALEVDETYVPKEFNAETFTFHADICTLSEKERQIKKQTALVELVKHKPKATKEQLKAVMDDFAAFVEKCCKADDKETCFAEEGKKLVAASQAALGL

labeling reaction with HSA (incorporation into HSA, FIG. 1) [1]: promptly reacts with somatostatin
Compound: CCOC(=O)C(/C=C/c1ccc(NC(=O)CNC(=O)CN2CCN(CC(=O)O)CCN(CC(=O)O)CCN(CC(=O)O)CC2)cc1)=C/C=O [Compound 8, 10-(2-(2-(4-((1E,3E)-3-ethoxycarbonyl-5-oxopenta-1,3-dienyl)phenylamino)-2-oxoethylamino)-2-oxoethyl)-1,4,7,10-tetraazacyclododecane-1,4,7-triacetic acid]
labeling reaction with anti-GFP antibody (incorporation into antibody, FIG. 2) (anti-GFP antibody): promptly reacts with the anti-GFP antibody

Compound: CCN(CC)c1ccc2cc(C(=O)NCCOCCOC(=O)C(/C=C/c3ccccc3)=C/C=O)c(=O)oc2c1 [Compound 50, 2-(2-(7-diethylaminocoumarin)-3-carbonylaminoethoxy)ethyl (E,E)-4-oxo-2-styrylbut-2-enoate]
fluorescence of the reaction product with HSA [2]: intense fluorescence was observed near 460 nm

Compound: CCN(CC)c1ccc2cc(C(=O)NCCOCCOC(=O)C(/C=C/c3ccc(NC(=O)CCCCCNc4ccc([N+](=O)[O-])c5nonc45)cc3)=C/C=O)c(=O)oc2c1 [Compound 56, 2-(2-(7-diethylaminocoumarin)-3-carbonylaminoethoxy)ethyl (E,E)-4-oxo-2-((6-(N-(7-nitrobenz-2-oxa-1,3-diazol-4-yl)amino)hexanamide)styryl)but-2-enoate]
fluorescence of the reaction product with HSA [2]: intense fluorescence was observed near 460 nm

Compound: C[C@H](N)C(=O)NCC(=O)N[C@H]1CSSC[C@@H](C(=O)O)NC(=O)[C@H](CO)NC(=O)[C@H]([C@@H](C)O)NC(=O)[C@H](Cc2ccccc2)NC(=O)[C@H]([C@@H](C)O)NC(=O)[C@H](CCCCN)NC(=O)[C@H](Cc2c[nH]c3ccccc23)NC(=O)[C@H](Cc2ccccc2)NC(=O)[C@H](Cc2ccccc2)NC(=O)[C@H](CC(N)=O)NC(=O)[C@H](CCCCN)NC1=O [somatostatin]
distribution in the living body (PET image, FIG. 3) [3]: distributed across the heart of the rat
